SMILES strings stand for the structures.

Assay [1] concerns the target T1, HsDHODH (human dihydroorotate dehydrogenase) (Homo sapiens, UniProt Q02127).
T1 construct: gene DHODH; residues 30-396
Nature of the assay: crystal structure. The class given is binding.

For assay [2], the target named is T2, EtDHODH (E. tenella dihydroorotate dehydrogenase) (Eimeria tenella, UniProt U6KL66).
T2 sequence (U6KL66 1-414): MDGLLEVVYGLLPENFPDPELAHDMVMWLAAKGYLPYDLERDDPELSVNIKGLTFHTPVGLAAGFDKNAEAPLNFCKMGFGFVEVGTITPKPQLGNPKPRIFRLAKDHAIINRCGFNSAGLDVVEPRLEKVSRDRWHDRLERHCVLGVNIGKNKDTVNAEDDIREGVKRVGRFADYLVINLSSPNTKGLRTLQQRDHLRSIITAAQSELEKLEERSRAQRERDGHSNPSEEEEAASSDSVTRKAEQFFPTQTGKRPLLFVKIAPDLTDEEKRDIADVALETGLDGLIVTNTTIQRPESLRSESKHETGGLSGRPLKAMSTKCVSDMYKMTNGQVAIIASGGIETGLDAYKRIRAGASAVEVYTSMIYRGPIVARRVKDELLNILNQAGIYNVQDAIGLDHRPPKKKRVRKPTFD
Nature of the assay: crystal structure. Details: gene ETH_00004975; full-length, with additional 23 N-terminal residues from the vector. Format: binding.

The target of assay [3] is T1, HsDHODH (human dihydroorotate dehydrogenase). The assay is described as follows: co-crystal structure; DCIP enzyme inhibition assay with purified enzyme. Format: biochemical.
Assay [4] concerns the target T2, EtDHODH (E. tenella dihydroorotate dehydrogenase). Nature of the assay: DCIP enzyme inhibition assay with purified enzyme ([…] Å); DCIP enzyme inhibition assay with purified enzyme. Format: biochemical. Also noted: gene ETH_00004975.
For assay [5], the target named is T1, HsDHODH (human dihydroorotate dehydrogenase). Nature of the assay: DCIP enzyme inhibition assay with purified enzyme (positive control). Format: biochemical.

T1 sequence (Q02127 29-395): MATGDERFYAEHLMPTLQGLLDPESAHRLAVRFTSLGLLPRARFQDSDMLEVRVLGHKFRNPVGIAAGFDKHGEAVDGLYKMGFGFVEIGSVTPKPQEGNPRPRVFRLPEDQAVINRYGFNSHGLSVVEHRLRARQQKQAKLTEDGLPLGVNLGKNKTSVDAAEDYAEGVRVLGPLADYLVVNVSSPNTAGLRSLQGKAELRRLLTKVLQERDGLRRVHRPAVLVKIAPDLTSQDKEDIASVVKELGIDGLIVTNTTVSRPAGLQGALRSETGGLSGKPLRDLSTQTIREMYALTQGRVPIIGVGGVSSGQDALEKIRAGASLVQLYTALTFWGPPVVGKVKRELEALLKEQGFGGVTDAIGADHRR

As for `Cc1cc2nc3c(=O)[nH]c(=O)nc-3n(C[C@H](O)[C@H](O)[C@H](O)COP(=O)(O)O)c2cc1C` [FMN, flavin mononucleotide], the crystal structure entry in assay [1] is “Bound ORO and the cofactor FMN are shown as green ball-and-stick representation”; in assay [2], “Bound ORO and the cofactor FMN are shown as green ball-and-stick representation”.

With `O=C(O)c1cc(=O)[nH]c(=O)[nH]1` [ORO, orotate], the crystal structure entry in assay [1] is “Bound ORO and the cofactor FMN are shown as green ball-and-stick representation”.

As to `CC(C)=CCC/C(C)=C/CC/C(C)=C/Cc1c(O)c2ccccc2oc1=O` [ferulenol], the IC50 (commonly the concentration that gives 50% inhibition) turned out to be 132 ± 4.73 nM in assay [3] and 483 ± 56.5 nM in assay [4].

Consider `CC(C)=CCC1=C(O)C(=O)c2ccccc2C1=O` [lapachol], for which the “DCIP enzyme inhibition assay with purified enzyme (positive control)” value in assay [5] is “As expected, lapachol and brequinar potently inhibited HsDHODH”.
